Laboratory results published in article PMC5874726, “Comparison Study of Two Differently Clicked ^18F-Folates—Lipophilicity Plays a Key Role” (Pharmaceuticals, 2018).

Experiments:
FR-negative OC316 cells = assay: Internalization studies in FR-negative OC316 cells; assay type: cell-based, human; settings: blocked KB cells and FR-negative OC316 cells
Method: Two different temperatures (4 °C for receptor binding, 37 °C for receptor binding and internalization) and two different concentrations were assessed. […] Both radiofolates show a concentration as well as temperature depended increase of activity in the FR positive cells. […] This effect is not fully understood, but we presume the high lipophilicity in combination with the increased concentration being responsible for this high non-specific binding. […] Thus, about 90% of ^18F-DBCO-folate remained in solution, which is ideal for such a radiotracer assay set-up (see supporting information for pie chart of activity distribution, Figure S6). For ^18F-Ala-folate the overall receptor-bound and internalized fractions are similar to ^18F-DBCO-folate (see supporting information for pie chart of activity distribution, Figure S7).
As folate-receptor positive control, KB cells (derived from human cervical carcinoma; obtained from German Collection of Microorganisms and Cell Cultures), and OC316 cells (derived from human ovarian adenocarcinoma) as negative control were used. For FACS analysis, data of both cell lines see supporting information Figure S5. The cells were cultured in folate deficient RPMI 1640 medium containing 10% FCS, 1% penicillin-streptomycin and HEPES buffer (10 mM, 5 mL) grown at 37 °C in a humidified atmosphere containing 5% CO2. […]

healthy balb/c mice = assay: Ex vivo biodistribution in healthy balb/c mice; settings: Balb/c, mouse, in vivo, 60 min
Text: (§1) All animal experiments were approved by the local ethical committee (permission no. 23177-07/G15-1-033). Balb/c and balb/c nude (Balb/c AnNRj-Foxn1nu) mice were kept on a folate-deficient rodent diet to reduce their blood level of folate to one found in humans. After 7 days of acclimatization, human KB tumor cells (2.5 x 10^6 cells in PBS) were inoculated in the right shoulder of each balb/c nude mouse. All in vivo treatments and imaging experiments were done under isoflurane anesthesia. Eleven or twelve days after inoculation, animals were intravenously injected with ^18F-DBCO-Folate and ^18F-Ala-Folate (5–8 MBq, 100–200 µL) via a lateral tail vein. […] PET/MRI-studies were performed on a nanoScan PET/MRI (Mediso, Budapest, Hungary). First MRI scans (Material Map for co-registration of the PET scan; 3D; GRE-EXT, FOV; slice thickness: 0.6 mm; TE: 2 ms; TR: 15 ms; flip angle: 25 deg) were acquired and then either a dynamic scan over 60 min starting with injection of the radiotracer or a static scan for 10 min after 50 min p.i. were performed. All mice, which underwent ex vivo biodistribution, were scanned first. Afterwards co-registered PET/MR images were analyzed via PMOD (version 3.6) and Inveon Research Workplace (version 4.2). For ex vivo biodistribution studies mice were euthanized 60 min p.i. and organs of interest were dissected, weighed, and measured in a γ-counter (PerkinElmer 2470 Wizard2, Perkin Elmer, Rodgau, Germany). The incorporated radioactivity was expressed as percentage of injected dose per gram of tissue (% ID/g).

KB tumor-bearing mice = assay: µPET imaging in KB tumor-bearing mice; assay type: in vivo, mouse; settings: static scan 50-60 min p.i.
Text: as §1

KB-tumor bearing mice = assay: Ex vivo biodistribution in KB-tumor bearing mice
Text: as §1

[1] = balb/c nude (Balb/c AnNRj-Foxn1nu), mouse, in vivo, 60 min

## Nc1nc2ncc(CNc3ccc(C(=O)NC(CCC(=O)NCCOCCOCCOCCn4cc(CNC(C[18F])C(=O)O)nn4)C(=O)O)cc3)nc2c(=O)[nH]1 (centres unmarked) [^18F-Ala-folate]
FR-negative OC316 cells
  non-specific binding: lower non-specific binding
Healthy balb/c mice
  uptake Appendix: 0.20 ± 0.11 %ID/g tissue
  uptake Blood: 0.29 ± 0.29 %ID/g tissue
  uptake Heart: 0.32 ± 0.21 %ID/g tissue
  uptake Inguinal lymph nodes: 0.93 ± 0.67 %ID/g tissue
  uptake Intestines (empty): 1.67 ± 1.12 %ID/g tissue
  uptake Left kidney: 19.90 ± 8.63 %ID/g tissue
  uptake Liver: 1.51 ± 1.26 %ID/g tissue
  uptake Lung: 0.36 ± 0.16 %ID/g tissue
  uptake Muscle: 0.26 ± 0.13 %ID/g tissue
  uptake Pancreas: 0.33 ± 0.20 %ID/g tissue
  uptake Right kidney: 20.55 ± 9.71 %ID/g tissue
  uptake Spleen: 0.15 ± 0.09 %ID/g tissue
  uptake Stomach (empty): 0.71 ± 0.24 %ID/g tissue
KB tumor-bearing mice
  visualization of KB tumors in maximum intensity projection (MIP) PET images: displayed the KB-tumor in the MIP
KB-tumor bearing mice; 60 min p.i.
  tumor/blood ratio: 10.11
  tumor/kidney ratio: 0.12
  tumor/muscle ratio: 7.64
KB-tumor bearing mice; [1]
  reduction of activity in the tumor in the blocked group: 85%
  tumor uptake relative to ^18F-DBCO-folate: 3 times
  uptake Appendix: 0.39 ± 0.22 %ID/g tissue
  uptake Blood: 0.17 ± 0.05 %ID/g tissue
  uptake Heart: 0.22 ± 0.09 %ID/g tissue
  uptake Inguinal lymph nodes: 0.57 ± 0.15 %ID/g tissue
  uptake Intestines (empty): 3.42 ± 2.18 %ID/g tissue
  uptake Left kidney: 14.49 ± 3.42 %ID/g tissue
  uptake Liver: 1.71 ± 1.02 %ID/g tissue
  uptake Lung: 0.28 ± 0.05 %ID/g tissue
  uptake Muscle: 0.22 ± 0.02 %ID/g tissue
  uptake Pancreas: 0.26 ± 0.11 %ID/g tissue
  uptake Right kidney: 14.27 ± 3.35 %ID/g tissue
  uptake Spleen: 0.16 ± 0.04 %ID/g tissue
  uptake Stomach (empty): 0.95 ± 0.50 %ID/g tissue
  uptake Tumor: 1.68 ± 0.13 %ID/g tissue
KB-tumor bearing mice; liver including gallbladder, 60 min p.i.
  tumor/liver ratio: 0.98
